Test results taken from article PMC4414309, “Target Modulation by a Kinase Inhibitor Engineered to Induce a Tandem Blockade of the Epidermal Growth Factor Receptor (EGFR) and c-Src: The Concept of Type III Combi-Targeting” (PLoS ONE, 2015).

Columns and labels:
[1] = biological target: T1, EGFR (Homo sapiens, UniProt P00533); experiment: In vitro kinase assay, EGFR; format: biochemical; conditions: ATP 50 μM, average of three independent experiments in duplicate, read-out: IC50 EGFR kinase inhibition
T1 construct: purchased Enzo Life Sciences Inc, NY, USA; Signal Chem, Richmond, Canada
T1 sequence (P00533 25-1210): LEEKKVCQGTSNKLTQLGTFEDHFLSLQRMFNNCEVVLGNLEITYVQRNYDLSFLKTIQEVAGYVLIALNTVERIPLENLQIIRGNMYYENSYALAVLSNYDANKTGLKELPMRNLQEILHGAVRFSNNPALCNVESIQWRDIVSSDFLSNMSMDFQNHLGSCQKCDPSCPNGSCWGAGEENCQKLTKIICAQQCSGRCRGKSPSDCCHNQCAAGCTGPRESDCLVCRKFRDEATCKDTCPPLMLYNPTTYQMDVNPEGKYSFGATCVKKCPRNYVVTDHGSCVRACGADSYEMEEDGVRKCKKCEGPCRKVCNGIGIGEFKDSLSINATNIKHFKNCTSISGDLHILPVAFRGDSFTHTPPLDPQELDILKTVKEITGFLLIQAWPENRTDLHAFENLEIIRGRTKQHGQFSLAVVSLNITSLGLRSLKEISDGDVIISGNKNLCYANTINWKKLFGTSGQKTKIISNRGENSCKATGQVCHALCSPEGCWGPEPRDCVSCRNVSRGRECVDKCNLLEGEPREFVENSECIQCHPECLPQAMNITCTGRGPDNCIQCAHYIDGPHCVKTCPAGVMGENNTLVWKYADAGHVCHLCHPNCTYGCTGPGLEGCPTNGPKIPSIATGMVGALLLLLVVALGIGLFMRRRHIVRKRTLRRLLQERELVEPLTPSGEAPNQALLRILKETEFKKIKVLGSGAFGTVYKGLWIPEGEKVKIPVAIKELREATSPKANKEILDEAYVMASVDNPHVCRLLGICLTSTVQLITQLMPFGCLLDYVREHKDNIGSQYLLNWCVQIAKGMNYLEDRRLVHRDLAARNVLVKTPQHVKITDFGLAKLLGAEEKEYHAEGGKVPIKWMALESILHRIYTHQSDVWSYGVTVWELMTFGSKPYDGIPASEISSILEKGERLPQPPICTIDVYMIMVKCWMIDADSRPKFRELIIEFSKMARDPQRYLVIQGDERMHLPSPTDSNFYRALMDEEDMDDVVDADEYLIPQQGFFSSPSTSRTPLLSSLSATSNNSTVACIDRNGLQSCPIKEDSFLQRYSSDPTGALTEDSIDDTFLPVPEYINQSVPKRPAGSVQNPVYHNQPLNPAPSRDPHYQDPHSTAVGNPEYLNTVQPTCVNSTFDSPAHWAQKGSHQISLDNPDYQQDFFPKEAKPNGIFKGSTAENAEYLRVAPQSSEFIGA
Experimental: The EGFR and c-Src kinase assays were performed in 96-well plates (NuncMaxisorp) coated with PGT (poly L-glutamic acid L-tyrosine, 4:1, Sigma Aldrich, MO, USA) and incubated at 37°C for 48h prior to using. PGT served as the substrate to be phosphorylated by EGFR (Enzo Life Sciences Inc, NY, USA, Signal Chem, Richmond, Canada) and c-Src (Enzo Life Sciences Inc, NY, USA, Signal Chem, Richmond, Canada) in the presence of ATP (50 μM). […] To each well, 15 ng of EGFR (20 μg/ml) or 6 ng of c-Src (0.1 μg/μl) were added. The phosphorylated substrate was detected using an HRP-conjugated anti-phosphotyrosine antibody (Santa Cruz Biotechnology, CA). The signal was developed by the addition of 3, 3’, 5, 5’-tetramethylbenzidine peroxidase substrate (Kierkegaard and Perry Laboratories, Gaithersburg, MD) and the colorimetric reaction was monitored at 450 nm using a microplate reader ELx808 (BioTek Instruments). The IC50 values were calculated using GraphPad Prism 6.0 (GraphPadSoftware, Inc., San Diego, CA). Each experiment was carried out at least three times, in duplicate.

[2] = system: phospho-EGFR (Y1068); experiment: Western blot of EGFR phosphorylation in cells; format: cell-based, mouse
Experimental: (§1) NIH3T3-Her14 and 4T1 cells grown in 10% FBS containing media were plated (~ 1 x 10^6 cells/well) in 6-well plates and allowed to attach overnight (37°C, 5% CO2). The cells were rinsed twice with PBS twenty-four hours later and starved overnight on addition of serum-free media. Thereafter, they were treated with different doses of AL776 for 2 hours, washed with PBS (twice) and stimulated with 50 ng/ml EGF for 30 min at 37°C. Cells were washed, detached by scraping in ice-cold PBS and collected by centrifugation for 15 min at 3000 rpm. Cell pellets were re-suspended in cold lysis buffer 50 mM Tris-HCl pH 7.5; 150 mM NaCl; 1% Nonidet P-40, 1 mM EDTA; 5 mM NaF; 1 mM Na3VO4; protease inhibitor tablet (Roche Biochemicals, Laval, Canada)]. Lysates were kept on ice for 1 h and collected by centrifugation at 13,000 rpm for 20 min at 4°C. The concentration of protein was determined using the Bio-Rad protein assay kit (Bio-Rad laboratories, Hercules, CA). Equal amounts of proteins were loaded, resolved on 10% SDS-PAGE and thereafter transferred to a polyvinylidenedifluoride (PVDF) membrane (Milipore, Bedford, MA). […]

[3] = system: phospho-Src (Y416); experiment: Western blot of c-Src phosphorylation in cells; format: cell-based, mouse
Experimental: as §1

[4] = system: MDA-MB-231 cells; experiment: Wound-healing assay, MDA-MB-231; format: cell-based, human; conditions: MDA-MB-231, 0.1 μM, 24h drug exposure
Experimental: MDA-MB-231 and 4T1 cells were plated in 6-well plates (500,000 cells/well) and allowed to attach overnight (37°C, 5% CO2). The following day, media was removed and a cross scratch was made in the middle of the cell monolayer. […] The scratch was visualized at two different time points (0 and 24h) using the Leica DM IL inverted microscope (10X) and images were obtained using the Leica DFC300FX camera.

[5] = system: 4T1 cells; experiment: Boyden chamber invasion assay, 4T1; format: cell-based, mouse; conditions: 4T1, concentration as low as 0.1 μM, 24h
Experimental: The invasive property of MDA-MB-231 and 4T1 cells was determined using the Boyden-chamber invasion assay. Cells suspended in serum-free media were plated (120–150,000 cells/well) onto polycarbonate transwell inserts (8 μm pore size, BD Biosciences) coated with matrigel (6%) (BD Biosciences), separating the top and bottom chambers (50 μl/filter). […] The invasive property of cells was observed 24h after treatment by fixing cells in formalin and staining with 0.1% crystal violet (Sigma-Aldrich Canada Ltd). Cells attached on the upper surface of the insert (top chamber) were removed by gently scraping away with a cotton swab, whereas those that invaded onto the lower side of the insert were observed using a microscope (Leica DM IL inverted microscope, 10X). Images of five non-overlapping fields of invading cells were captured using the Leica DFC300FX camera and quantification was done using the Scion Image Analysis (3.53.0.0) software and ImageJ 1.46r software. The results were expressed in terms of percentage of invading cells relative to control and the bar graphs represent the average of three independent experiments.

[6] = system: 4T1 tumours; format: in vivo; conditions: 40 mg/kg i.v. once/day for 5 days
[7] = system: 4T1 cells; experiment: Growth inhibition, SRB assay, 4T1; conditions: Mus musculus, 4T1, 120 h, read-out: IC50 growth inhibition 4T1
Experimental: Growth inhibition was measured in cells using the sulforhodamine B (SRB) assay [48]. […] The plates were subsequently rinsed with 1% acetic acid, and allowed to dry overnight. […] The results were analyzed using GraphPad Prism 6.0 (GraphPadSoftware, Inc., San Diego, CA) and the sigmoidal dose response curve was used to determine IC50 values. Each experiment was carried out at least four times, in triplicate.

[8] = NIH3T3-Her14 and 4T1 cells, 2 h drug, EGF 50 ng/ml 30 min

Structure (SMILES): Cc1nc(Nc2ncc(C(=O)Nc3c(C)cccc3Cl)s2)cc(N2CCN(CCOC(=O)CCC(=O)OCCN(C)Cc3ccc(C(=O)Nc4ccc5ncnc(Nc6cccc(Cl)c6)c5c4)cc3)CC2)n1 [AL776]
- IC50 [1]: 120 nM
- Concentration of maximal inhibition of EGFR phosphorylation [2, 8]: 1 µM
- Concentration of robust inhibition of EGFR phosphorylation in cells ([2]; in cells): 0.25 to 1 µM
- Concentration of maximal inhibition of c-Src phosphorylation [3, 8]: 1 µM
- Concentration of robust inhibition of c-Src phosphorylation in cells ([3]; in cells): 0.25 to 1 µM
- Effect on wound-closure [4]: blocked wound-closure
- Effect on invasion [5]: strongly inhibited invasion
- Tumour mass at end of study, control versus treated [6]: no difference observed
- Effect on tumour growth (tumour volume) ([6]; monitored two weeks): unable to block tumour growth
- IC50 [7]: 70 ± 10 nM
